Measurements: patent US12503455B2, “Nucleic acid-binding photoprobes and uses thereof” (Arrakis Therapeutics, Inc., priority 2017, dated 2025)
Entries after “also recorded” stand apart in the source; their conditions may differ.

Experiments:
Aptamer 21 = assay: Competition between Aptamer 21 photoprobes and RNA-binding ligands (RT pausing)
Method: Aptamer 21 was either incubated with probe alone (ARK-581) or probe plus a 10-fold excess of RNA-binding ligand.
Both ARK-852 and ARK-139 inhibit the photocrosslinking of probes to Aptamer 21.
Folded RNA (1 μM) was incubated with the photoaffinity probe (10 μM) in total 25 μL of buffer (20 mM TrisHCl pH 8, 100 mM KCl, 3 mM MgCl2) with 2.5% DMSO for 30 min at 37° C. to allow binding to come to equilibrium. The sample was then irradiated with long wave UV light (˜365 nm) for 30 min in a UV crosslinker (Fisher Scientific).
A 3.75 μL aliquot of 10 μM reverse transcription primer was added to the cross-linked RNA sample, which was then incubated for 5 min at 65° C. and then cooled on ice. The sample was then diluted to a final volume of 60 μL and final buffer concentration of 1× Protoscript-II buffer (New England Biolabs), 0.5 mM dNTPs, 10 mM DTT, 0.4 U/μL RNase Inhibitor (New England Biolabs), and 10 U/μL Protoscript-II (New England Biolabs). The reaction was incubated at 45° C. for 2 h, 65° C. for 20 min, and then 4° C.
The RNA was hydrolyzed by the addition of 4.8 μL of 2.5 M NaOH and heating at 95° C. for 5 min. The reaction was quenched by the addition of 0.9 μL of acetic acid. The cDNA was precipitated by the addition of 6.6 μL of 3 M sodium acetate pH 5 and 181 μL ethanol, cooling to −80° C. for 1 h, and then centrifuging at 20,500×g at 4° C. for 30 min. The cDNA pellet was washed twice with 500 μL of 70% ethanol and then air dried for 5 min.
The cDNA pellet was resuspended in 12 μL of 1×TBE-urea sample loading buffer (Bio-Rad) and heated to 95° C. for 5 min. The sample was then run on a pre-cast 8.6×6.7 cm TBE-urea 10% PAGE gel (Bio-Rad) at 120 V until the lower bromophenol blue dye reached the bottom of the gel. The gel was stained with 1×SYBR-gold (Invitrogen) in 1×TBE buffer at room temperature for 20 min covered from light. The gel fluorescence was imaged on an Azure c600 instrument.

[1] = cited from earlier work
Aptamer 21-E = assay: SPR binding to mutant Aptamer 21-E; conditions: data not shown; listed as ARK-139
Text: Surface plasmon resonance (SPR) may be used to screen ligands and hook and click constructs for binding to a target RNA of interest. SPR is especially useful for monitoring biomolecular interactions in real time. Typically, target species and unrelated control are immobilized to a sensor chip, then analytes (compounds/fragments) are flowed over the surface. Binding of the compound to target species results in increase of SPR signal (association phase). Washing away bound compound with buffer results in a decrease of SPR signal (dissociation phase). Fitting of sensorgrams recorded at different compound concentrations is performed to an appropriate interaction model. The method allows extraction of kinetic parameters (ka, kd→KD). Requirements/limitations include that the ka/kd values be in reasonable ranges; and the target size must not be too large (<100 kDa). It is an excellent method to screen fragments and profile or validate hits. BC4000 may be used for primary screening (up to 4,000 data pts/week). Biacore T200 is suitable for hit profiling and validation.
Experiments were performed on a MASS-2 (Sierra Sensors) at 25° C. A high capacity amine chip was equilibrated with PBS. The chip was conditioned with alternating injections of 10 mM HCl and 10 mM NaOH in 1 M NaCl. […]

Aptamer-21 = conditions: Lau et al., ACS Nano 2011; read-out: Kd of Aptamer-21 against compound 1b; cited from earlier work

inhibition of photocrosslinking of ARK-581 to Aptamer 21 (Aptamer 21; 10-fold excess of RNA-binding ligand over probe): efficiently inhibited
inhibition of photocrosslinking of probes to Aptamer 21 (RT pausing competition assay) (Aptamer 21; FIG. 65): inhibit
binding to Aptamer 21-E by SPR (Aptamer 21-E): not to bind; also recorded: did not bind
SMILES: COC(=O)C1=C(COCc2cn(CCOCCOCCO)nn2)NC(c2ccncc2)=NC1c1ccc(F)cc1Cl (racemic) [I-1]
water solubility [1]: water-soluble
Kd (Aptamer-21): 50 nM
